From ChEMBL document CHEMBL4715837, “Dimeric aryl-substituted imidazoles may inhibit ALT cancer by targeting the multimeric G-quadruplex in telomere” (Eur J Med Chem, 2020)
Values belong to the compound of their own block, whether it stands above or below them. Calls of active or inactive are those of the source. No cut-off for these calls is given here.

Key:
[1] = test system: U2OS; experiment: Cytotoxicity against human U2OS cells assessed as reduction in cell viability measured after 24 hrs by CCK8 assay
[2] = test system: Quadruplex DNA; experiment: Binding affinity at Tel21 G4 quadruplex DNA (unknown origin) assessed as change in melting temperature at 6 uM by circular dichroism spectrophotometric method; type: nucleic acid
[3] = test system: Quadruplex DNA; experiment: Binding affinity at Tel45 G4 quadruplex DNA (unknown origin) assessed as change in melting temperature at 6 uM by circular dichroism spectrophotometric method; type: nucleic-acid assay
[4] = Binding affinity to hairpin duplex DNA (unknown origin) by time resolved fluorescence analysis
[5] = test system: U2OS; experiment: Induction of apoptosis in human U2OS cells assessed as early apoptotic cells at 0.6 uM measured after 24 hrs by Annexin-V flour 633/propidium iodide staining based flow cytometry (reference value: 9.55%); type: functional
[6] = test system: Quadruplex DNA; experiment: Binding affinity at Tel45-9 mutant G4 quadruplex DNA (unknown origin) assessed as change in melting temperature at 6 uM by circular dichroism spectrophotometric method; type: nucleic-acid assay
[7] = test system: U2OS; experiment: Induction of apoptosis in human U2OS cells assessed as necrotic cells at 1.2 uM measured after 24 hrs by Annexin-V flour 633/propidium iodide staining based flow cytometry (reference value: 0.022%); type: functional
[8] = test system: U2OS; experiment: Inhibition of colony formation in human U2OS cells supplemented with fresh medium containing compounds every 3 days for 7 days by crystal violet staining based assay; type: functional, cell-based; details: dose 0.12-0.5 µM, time 7.0 day
[9] = test system: U2OS; experiment: Cell cycle arrest in human U2OS cells assessed as accumulation at S phase at 2.5 uM measured after 24 hrs by propidium iodide staining based flow cytometry (reference value: 24%); type: functional
[10] = test system: U2OS; experiment: Cell cycle arrest in human U2OS cells assessed as accumulation at G0/G1 phase at 0.6 uM measured after 24 hrs by propidium iodide staining based flow cytometry (reference value: 42%); type: functional
[11] = test system: U2OS; experiment: Induction of apoptosis in human U2OS cells assessed as early apoptotic cells at 2.5 uM measured after 24 hrs by Annexin-V flour 633/propidium iodide staining based flow cytometry (reference value: 9.55%); type: functional
[12] = test system: U2OS; experiment: Induction of apoptosis in human U2OS cells assessed as late apoptotic cells at 2.5 uM measured after 24 hrs by Annexin-V flour 633/propidium iodide staining based flow cytometry (reference value: 0.03%); type: functional
[13] = Binding affinity to hairpin duplex DNA (unknown origin) by fluorescence spectroscopic analysis
[14] = target: Quadruplex DNA; experiment: Binding affinity at Tel45 G4 quadruplex DNA (unknown origin) by fluorescence spectroscopic analysis; type: nucleic-acid assay
[15] = test system: U2OS; experiment: Cell cycle arrest in human U2OS cells assessed as accumulation at G2/M phase at 1.2 uM measured after 24 hrs by propidium iodide staining based flow cytometry (reference value: 33.5%); type: functional
[16] = test system: U2OS; experiment: Cell cycle arrest in human U2OS cells assessed as accumulation at Sub-G1 phase at 1.2 uM measured after 24 hrs by propidium iodide staining based flow cytometry (reference value: 0.5%); type: functional
[17] = test system: U2OS; experiment: Induction of apoptosis in human U2OS cells assessed as late apoptotic cells at 1.2 uM measured after 24 hrs by Annexin-V flour 633/propidium iodide staining based flow cytometry (reference value: 0.03%); type: functional
[18] = test system: U2OS; experiment: Cell cycle arrest in human U2OS cells assessed as accumulation at G2/M phase at 2.5 uM measured after 24 hrs by propidium iodide staining based flow cytometry (reference value: 33.5%); type: functional
[19] = target: Quadruplex DNA; experiment: Binding affinity at Tel21 G4 quadruplex DNA (unknown origin) by fluorescence spectroscopic analysis; type: nucleic-acid assay
[20] = test system: U2OS; experiment: Cell cycle arrest in human U2OS cells assessed as accumulation at G2/M phase at 0.6 uM measured after 24 hrs by propidium iodide staining based flow cytometry (reference value: 33.5%); type: functional
[21] = test system: U2OS; experiment: Induction of apoptosis in human U2OS cells assessed as viable cells at 1.2 uM measured after 24 hrs by Annexin-V flour 633/propidium iodide staining based flow cytometry (reference value: 90%); type: functional; details: read-out: Activity
[22] = test system: U2OS; experiment: Induction of apoptosis in human U2OS cells assessed as viable cells at 2.5 uM measured after 24 hrs by Annexin-V flour 633/propidium iodide staining based flow cytometry (reference value: 90%); type: functional; details: read-out: Activity
[23] = test system: Quadruplex DNA; experiment: Binding affinity to 2-Ap1 labelled Tel45 G4 quadruplex DNA (unknown origin) up to 10 uM by fluorescence titration assay; type: nucleic-acid assay; details: dose microM <=10
[24] = test system: U2OS; experiment: Cell cycle arrest in human U2OS cells assessed as accumulation at G0/G1 phase at 2.5 uM measured after 24 hrs by propidium iodide staining based flow cytometry (reference value: 42%); type: functional
[25] = test system: U2OS; experiment: Induction of apoptosis in human U2OS cells assessed as necrotic cells at 0.6 uM measured after 24 hrs by Annexin-V flour 633/propidium iodide staining based flow cytometry (reference value: 0.022%); type: functional
[26] = test system: U2OS; experiment: Induction of apoptosis in human U2OS cells assessed as late apoptotic cells at 0.6 uM measured after 24 hrs by Annexin-V flour 633/propidium iodide staining based flow cytometry (reference value: 0.03%); type: functional
[27] = target: Quadruplex DNA; experiment: Binding affinity at Tel45-9 mutant G4 quadruplex DNA (unknown origin) by fluorescence spectroscopic analysis; type: nucleic-acid assay
[28] = test system: U2OS; experiment: Cell cycle arrest in human U2OS cells assessed as accumulation at G0/G1 phase at 1.2 uM measured after 24 hrs by propidium iodide staining based flow cytometry (reference value: 42%); type: functional
[29] = test system: U2OS; experiment: Induction of apoptosis in human U2OS cells assessed as early apoptotic cells at 1.2 uM measured after 24 hrs by Annexin-V flour 633/propidium iodide staining based flow cytometry (reference value: 9.55%); type: functional
[30] = test system: Quadruplex DNA; experiment: Binding affinity at Tel45-6 mutant G4 quadruplex DNA (unknown origin) assessed as change in melting temperature at 6 uM by circular dichroism spectrophotometric method; type: nucleic-acid assay
[31] = test system: Quadruplex DNA; experiment: Binding affinity to Tel45 G4 quadruplex DNA (unknown origin) assessed as compound-DNA complex formation at stoichiometry ratio of 1:1 by job-plot analysis; type: nucleic-acid assay
[32] = test system: U2OS; experiment: Cell cycle arrest in human U2OS cells assessed as accumulation at Sub-G1 phase at 2.5 uM measured after 24 hrs by propidium iodide staining based flow cytometry (reference value: 0.5%); type: functional
[33] = test system: U2OS; experiment: Induction of apoptosis in human U2OS cells assessed as viable cells at 0.6 uM measured after 24 hrs by Annexin-V flour 633/propidium iodide staining based flow cytometry (reference value: 90%); type: functional; details: read-out: Activity
[34] = test system: BJ; experiment: Cytotoxicity against human BJ cells assessed as reduction in cell viability measured after 24 hrs by CCK8 assay; type: cell-based
[35] = test system: Quadruplex DNA; experiment: Binding affinity at Tel45 G4 quadruplex DNA (unknown origin) assessed as appearance of new long-lived unquenched species by time resolved fluorescence assay; type: nucleic-acid assay
[36] = test system: Quadruplex DNA; experiment: Binding affinity to 2-Ap25 labelled Tel45 G4 quadruplex DNA (unknown origin) up to 10 uM by fluorescence titration assay; type: nucleic-acid assay; details: dose microM <=10
[37] = test system: U2OS; experiment: Antimigratory activity in human U2OS cells measured after 24 hrs by wound scrape assay; type: functional, cell-based; details: dose 1.5-5 µM
[38] = test system: U2OS; experiment: Induction of apoptosis in human U2OS cells assessed as necrotic cells at 2.5 uM measured after 24 hrs by Annexin-V flour 633/propidium iodide staining based flow cytometry (reference value: 0.022%); type: functional
[39] = test system: Quadruplex DNA; experiment: Binding affinity at Tel21 G4 quadruplex DNA (unknown origin) by time resolved fluorescence analysis; type: nucleic-acid assay
[40] = target: Quadruplex DNA; experiment: Binding affinity at Tel45-6 mutant G4 quadruplex DNA (unknown origin) by fluorescence spectroscopic analysis; type: nucleic-acid assay
[41] = test system: Quadruplex DNA; experiment: Binding affinity to 2-Ap46 labelled Tel45 G4 quadruplex DNA (unknown origin) up to 10 uM by fluorescence titration assay; type: nucleic-acid assay; details: dose microM <=10
[42] = test system: U2OS; experiment: Cell cycle arrest in human U2OS cells assessed as accumulation at S phase at 0.6 uM measured after 24 hrs by propidium iodide staining based flow cytometry (reference value: 24%); type: functional
[43] = test system: U2OS; experiment: Cell cycle arrest in human U2OS cells assessed as accumulation at S phase at 1.2 uM measured after 24 hrs by propidium iodide staining based flow cytometry (reference value: 24%); type: functional
[44] = test system: U2OS; experiment: Cell cycle arrest in human U2OS cells assessed as increase in accumulation at S phase measured after 24 hrs by propidium iodide staining based flow cytometry; type: functional
[45] = test system: U2OS; experiment: Cell cycle arrest in human U2OS cells assessed as accumulation at Sub-G1 phase at 0.6 uM measured after 24 hrs by propidium iodide staining based flow cytometry (reference value: 0.5%); type: functional

Compound: CN(C)c1ccc(Nc2c3ccc(NC(=O)CCN4CCCC4)cc3nc3cc(NC(=O)CCN4CCCC4)ccc23)cc1
IC50 [1]: > 40 µM

deltaTm [2]: 8.9 °C | ΔTm [3]: 6.9 °C
Compound: CN1CCN(c2ccc(-c3nc(-c4ccc(-c5nc(-c6ccc(N7CCN(C)CC7)cc6)c(-c6ccc(N7CCN(C)CC7)cc6)[nH]5)cc4)[nH]c3-c3ccc(N4CCN(C)CC4)cc3)cc2)CC1

deltaTm [2]: 6.1 °C | ΔTm [3]: 10.9 °C
Compound: CN1CCN(c2ccc(-c3nc(-c4ccc(-c5nc(-c6ccc(F)cc6)c(-c6ccc(F)cc6)[nH]5)cc4)[nH]c3-c3ccc(N4CCN(C)CC4)cc3)cc2)CC1

Activity [4]: Not Active | deltaTm [6]: 4.3 °C | Kd [13]: 51.7 µM | Kd [14]: 4.6 µM | deltaTm [2]: 1.7 °C | Kd [19]: 18.4 µM | Activity [23]: inactive | Kd [27]: 10.7 µM | deltaTm [30]: 2.5 °C | Activity [31]: Active | Activity [35]: Active | ΔTm [3]: 12.7 °C | Activity [36]: Active | Activity [39]: Not Active | Kd [40]: 8.6 µM | Activity [41]: inactive
Compound: CN1CCN(c2ccc(-c3nc(-c4ccc(-c5nc(-c6ccc(F)cc6)c(-c6ccc(N7CCN(C)CC7)cc6)[nH]5)cc4)[nH]c3-c3ccc(F)cc3)cc2)CC1
Activity [5]: 12.5% | Activity [7]: 0.53% | inhibition [8]: Dose-dependent effect | Activity [9]: 32.2% | Activity [10]: 41.4% | Activity [11]: 20% | Activity [12]: 4.92% | IC50 [1]: 2.1 µM | Activity [15]: 34.4% | Activity [16]: 0.4% | Activity [17]: 4.78% | Activity [18]: 27.9% | Activity [20]: 33.4% | viability at 1.2 µM [21]: 76.8% | viability at 2.5 µM [22]: 73.7% | Activity [24]: 36.5% | Activity [25]: 0.14% | Activity [26]: 3.05% | Activity [28]: 39.3% | Activity [29]: 17.9% | Activity [32]: 3.4% | viability at 0.6 µM [33]: 84.3% | IC50 [34]: 29.3 µM | Activity [37]: Dose-dependent effect | Activity [38]: 1.34% | Activity [42]: 25% | Activity [43]: 25.9% | Activity [44]: Dose-dependent effect | Activity [45]: 0.3%

deltaTm [2]: 6.5 °C | ΔTm [3]: 15.7 °C
Compound: CN1CCN(c2ccc(-c3nc(-c4ccc(-c5nc(-c6ccc(F)cc6)c(-c6ccc(N7CCN(C)CC7)cc6)[nH]5)cc4)[nH]c3-c3ccc(N4CCN(C)CC4)cc3)cc2)CC1
